Common to all, as to experiment: Expanded lung cancer cell line proliferation assay
What all share (type): cell-based

The subject of test [1] is BEN. Conditions: 72 h, average of PrestoBlue and Cell Titer Glo, AKR1C3 2573.5 TPM, read-out: Absolute Qualified AC50. The source says: (§1) Cellular Proliferation Assay to Assess Compound Activity in an Expanded Panel of 57 NRF2 Pathway Mutant and Wild Type Lung Cancer Cell Lines.
(§2) Both the PrestoBlue Cell Viability Reagent and Cell Titer Glo were multiplexed together as the final assay readout. PrestoBlue is a cell permeable resazurin-based solution that utilizes the reducing power of living cells to quantitatively measure their proliferation. Cell Titer Glo measures the amount of ATP present, an indicator of metabolically active cells.
(§3) Expanded Lung Cancer Cell Line Proliferation Assay Outline, Analysis and Profiling Results
(§4) Cells were seeded into 384 well assay plates (Greiner Bio-One, Catalog #781080) using the Thermo Scientific Matrix WellMate microplate dispenser and Thermo Scientific Matrix WellMate small bore disposable tubing cartridges (Catalog #201-30002) in 30 μl of growth media (RPMI-1640 supplemented with 10% fetal bovine serum and 1% penicillin/streptomycin) per well (1000 to 2000 cells/well depending on doubling time). Following cell plating, assay plates were placed into tissue culture incubator at 37° C./5% CO2 overnight. The next day one assay plate for each cell line was used for a Day 0 Cell Titer Glo and PrestoBlue readout. 3 μl of PrestoBlue Cell Viability Reagent (Thermo Scientific, Catalog #A13262) was added to each well and then assay plates were incubated at 37° C./5% CO2 for 30 minutes prior to fluorescence readout on the EnVision 2105 multimode plate reader (Perkin Elmer). Following the PrestoBlue readout 18 μl of Cell Titer Glo (Promega, Catalog #G7572) was then added to each well, allowing plates to incubate at room temperature for 10 minutes prior to luminescence readout on the EnVision. Compound was then added to the remaining assay plates (each cell line run in triplicates) using the Labcyte Inc Echo 555 acoustic liquid handler. Compounds were arrayed into a Labcyte Inc Echo qualified 384 well LDV microplate (Cat #LP-0200-GNF10). Compounds were serially diluted 1:3.16 to generate an 8 point dose response for a final top concentration of 1 μM. DMSO (0.3%) was used as the neutral control (NC) and MG132 (30 μM) was used as the active control (AC). 90 nl of compounds were added to 30 μl of cells using the Labcyte Inc Echo 555 acoustic liquid handler for a final DMSO assay concentration of 0.3%. Following compound addition, assay plates were spun down in a tabletop centrifuge at 500 rpm for 1 minute and then placed into tissue culture incubator at 37° C./5% CO2 for 72 h. Following the 72 h incubation, all assay plates were readout using PrestoBlue and Cell Titer Glo using the same conditions previously described for the Day 0 readout. The Day 0 readout (untreated cells) was used to compare to the 72 h DMSO treated samples on each assay plate as a way of tracking each cell line's fold growth. NC1 control based normalization was used for data analysis in Helios, which incorporates the DMSO neutral control (NC) and MG132 active control (AC) for generating dose response curves that are then used to calculate the Absolute Qualified AC50 calls for each compound and cell line.
(§5) NC1 normalization calculation model: NC1: xn=±(x−NC)/(AC−NC)
(§6) +/− is set by the inhibition type parameter setting where NC and AC are averages (mean or median) over the corresponding NC and AC well values. The Qualified Absolute AC50 values for Compound 36 and Compound 40 are listed in the table below and are represented as the average activity in both the PrestoBlue and Cell Titer Glo assay readouts.
(§7) Absolute Qualified AC50 Values Listed Below are a Representation of Each Compounds' Average Activity in Both the PrestoBlue and Cell Titer Glo Assay Readouts.
A general note: ATP-based viability assays read luminescence as a measure of living cells.

The test system of test [2] is COLO-699. Conditions: COLO-699, 72 h, average of PrestoBlue and Cell Titer Glo; AKR1C3 expression: no data available; read-out: Absolute Qualified AC50.
Excerpt: as §1, §2, §3, §4, §5, §6, §7

The test system of test [3] is CORL-279. Conditions: Homo sapiens, COR-L279; CORL-279, 72 h, average of PrestoBlue and Cell Titer Glo; AKR1C3 3.6 TPM; read-out: Absolute Qualified AC50.
Excerpt: as §1, §2, §3, §4, §5, §6, §7

In test [4] the test system is DV-90. Conditions: Homo sapiens; DV-90, 72 h, average of PrestoBlue and Cell Titer Glo; AKR1C3 48.9 TPM; read-out: Absolute Qualified AC50.
Excerpt: as §1, §2, §3, §4, §5, §6, §7

In test [5] the test system is HCC2108. Conditions: HCC2108, 72 h, average of PrestoBlue and Cell Titer Glo; AKR1C3 0.5 TPM; read-out: Absolute Qualified AC50.
Excerpt: as §1, §2, §3, §4, §5, §6, §7

For test [6], the system named is LK2. Conditions: Homo sapiens, LK-2; LK2, 72 h, average of PrestoBlue and Cell Titer Glo; AKR1C3 1107 TPM; read-out: Absolute Qualified AC50.
Excerpt: as §1, §2, §3, §4, §5, §6, §7

Test [7] concerns LXF-289. Conditions: Homo sapiens; LXF-289, 72 h, average of PrestoBlue and Cell Titer Glo; AKR1C3 358.4 TPM; read-out: Absolute Qualified AC50.
Excerpt: as §1, §2, §3, §4, §5, §6, §7

For test [8], the system named is NCI-H1339. Conditions: NCI-H1339, 72 h, average of PrestoBlue and Cell Titer Glo; AKR1C3 5.2 TPM; read-out: Absolute Qualified AC50.
Excerpt: as §1, §2, §3, §4, §5, §6, §7

For test [9], the system named is NCI-H1437. Conditions: Homo sapiens; NCI-H1437, 72 h, average of PrestoBlue and Cell Titer Glo; AKR1C3 2720.8 TPM; read-out: Absolute Qualified AC50.
Excerpt: as §1, §2, §3, §4, §5, §6, §7

The test system of test [10] is NCI-H1568. Conditions: NCI-H1568, 72 h, average of PrestoBlue and Cell Titer Glo; AKR1C3 2.8 TPM; read-out: Absolute Qualified AC50.
Excerpt: as §1, §2, §3, §4, §5, §6, §7

In test [11] the test system is NCI-H1581. Conditions: Homo sapiens; NCI-H1581, 72 h, average of PrestoBlue and Cell Titer Glo; AKR1C3 1.9 TPM; read-out: Absolute Qualified AC50.
Excerpt: as §1, §2, §3, §4, §5, §6, §7

The test system of test [12] is NCI-H1838. Conditions: Homo sapiens; NCI-H1838, 72 h, average of PrestoBlue and Cell Titer Glo; AKR1C3 1.8 TPM; read-out: Absolute Qualified AC50.
Excerpt: as §1, §2, §3, §4, §5, §6, §7

Test [13] has as its system NCI-H2347. Conditions: Homo sapiens; NCI-H2347, 72 h, average of PrestoBlue and Cell Titer Glo; AKR1C3 8.9 TPM; read-out: Absolute Qualified AC50.
Excerpt: as §1, §2, §3, §4, §5, §6, §7

For test [14], the system named is SW1271. Conditions: SW1271, 72 h, average of PrestoBlue and Cell Titer Glo; AKR1C3 2.4 TPM; read-out: Absolute Qualified AC50.
Excerpt: as §1, §2, §3, §4, §5, §6, §7

In patent US11970497B2, “Tricyclic AKR1C3 dependent KARS inhibitors” (Novartis AG, priority 2019, dated 2024) one finds AC50 data, which are given here for two compounds.

By AC50 is commonly meant the concentration at which the activity in the assay is half-maximal. For `CN1c2ccc(F)cc2C(=O)CC12CCN(C(=O)NCc1ccc(F)c(NCCO)c1)CC2` [Example 36, 6′-fluoro-N-(4-fluoro-3-((2-hydroxyethyl)amino)benzyl)-1′-methyl-4′-oxo-3′,4′-dihydro-1′H-spiro[piperidine-4,2′-quinoline]-1-carboxamide], the AC50 was 399 nM in test [1]; more than 1000 nM in test [2]; more than 1000 nM in [3]; 347 nM in test [4]; more than 1000 nM in test [5]; more than 1000 nM in [6]. Also, the concentration at half-maximal activity (AC50) in test [7] was 781 nM; in test [8], more than 1000 nM; in test [9] it was 257 nM; in test [10], more than 1000 nM; in test [11], more than 1000 nM; in test [12], more than 1000 nM. For the same compound, the AC50 in test [13] and in [14] was more than 1000 nM throughout.
On to `O=C1CC2(CCN(C(=O)NCc3ccc(F)cc3)CC2)Nc2ccc(F)cc21` [Example 40], for which the AC50 is 57 nM in test [1]; more than 1000 nM in test [2]; more than 1000 nM in test [3]; 159 nM in test [4]; more than 1000 nM in test [5]; more than 1000 nM in test [6]. The half-maximal activity concentration (AC50) was 835 nM in test [7]; more than 1000 nM in test [8]; 68 nM in [9]; more than 1000 nM in test [10]; more than 1000 nM in test [11]; more than 1000 nM in test [12]. Moreover, the AC50 in test [13] and in test [14] was more than 1000 nM in each case.
